Results from ChEMBL document CHEMBL1141418 (J Med Chem, 2007).
Blank lines part the entries; values can stand above or below the compound they belong to. Positions of bridges follow the written chain, without caps; N, C: chain ends. Non-standard residues stand in square brackets, D forms with d. Residues, ends and D or L forms follow the SMILES beside them. Orn = NCCC[C@H](N)C(=O)O; Dab = NCC[C@H](N)C(=O)O; Dap = NC[C@H](N)C(=O)O; Mpa = O=C(O)CCS

Tests used:
Rattus norvegicus [1] = organism: Rattus norvegicus; assay: Antidiuretic activity in rat; type: functional, Urine
Rattus norvegicus [2] = organism: Rattus norvegicus; assay: Vasopressor activity in rat; type: functional
[3] = molecular target: T1, Oxytocin receptor (Homo sapiens) (UniProt P30559); assay: Activity at OT receptor assessed as oxytocic activity in absence of magnesium; type: functional; conditions: filed as agonist
T1 sequence (whole entry): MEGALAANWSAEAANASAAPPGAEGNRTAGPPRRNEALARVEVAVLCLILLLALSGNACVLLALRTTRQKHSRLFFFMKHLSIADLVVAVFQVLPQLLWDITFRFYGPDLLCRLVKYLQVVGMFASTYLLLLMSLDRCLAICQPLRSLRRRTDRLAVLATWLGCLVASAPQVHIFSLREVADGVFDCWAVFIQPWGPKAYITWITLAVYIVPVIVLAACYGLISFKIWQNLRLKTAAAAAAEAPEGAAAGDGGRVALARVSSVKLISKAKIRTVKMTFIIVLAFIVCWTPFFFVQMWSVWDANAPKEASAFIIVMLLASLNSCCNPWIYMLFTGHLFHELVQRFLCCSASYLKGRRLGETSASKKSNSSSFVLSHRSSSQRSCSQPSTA

Vasopressin V2 receptor = Vasopressin V2 receptor (Rattus norvegicus, UniProt Q00788); assay: Displacement of [3H]AVP from vasopressin V2 receptor in rat kidney membranes; type: cell membranes, Membrane
Chain of Vasopressin V2 receptor (Q00788 whole entry): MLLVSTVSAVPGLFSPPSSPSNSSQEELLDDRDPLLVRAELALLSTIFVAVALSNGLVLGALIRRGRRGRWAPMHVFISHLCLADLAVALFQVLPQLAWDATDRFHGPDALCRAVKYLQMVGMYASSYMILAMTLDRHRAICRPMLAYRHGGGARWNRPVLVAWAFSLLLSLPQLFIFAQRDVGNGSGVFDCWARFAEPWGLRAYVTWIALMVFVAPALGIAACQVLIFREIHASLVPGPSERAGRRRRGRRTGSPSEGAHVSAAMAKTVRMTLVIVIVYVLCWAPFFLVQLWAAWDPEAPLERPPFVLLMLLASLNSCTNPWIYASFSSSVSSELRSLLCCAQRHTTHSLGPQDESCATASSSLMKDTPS

Vasopressin V1a receptor = Vasopressin V1a receptor (Rattus norvegicus, UniProt P30560); assay: Displacement of [3H]AVP from vasopressin V1a receptor in rat liver membrane; type: cell membranes
Chain of Vasopressin V1a receptor (P30560 whole entry): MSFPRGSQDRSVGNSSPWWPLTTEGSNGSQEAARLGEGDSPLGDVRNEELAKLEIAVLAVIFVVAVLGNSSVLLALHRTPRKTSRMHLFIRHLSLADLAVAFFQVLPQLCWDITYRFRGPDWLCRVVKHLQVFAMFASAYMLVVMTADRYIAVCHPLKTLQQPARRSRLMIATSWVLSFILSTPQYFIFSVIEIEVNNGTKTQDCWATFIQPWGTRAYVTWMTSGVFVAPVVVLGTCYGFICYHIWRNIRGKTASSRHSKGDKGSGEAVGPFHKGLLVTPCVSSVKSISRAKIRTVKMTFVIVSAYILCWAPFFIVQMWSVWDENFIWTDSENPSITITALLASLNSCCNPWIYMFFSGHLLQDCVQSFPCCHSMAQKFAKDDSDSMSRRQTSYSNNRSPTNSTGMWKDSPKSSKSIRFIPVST

Oxytocin receptor = molecular target: T2, Oxytocin receptor (Rattus norvegicus, UniProt P70536); assay: Displacement of [3H]AVP from rat OT receptor expressed in CHO cells; type: cell-based
T2 sequence (P70536 whole entry): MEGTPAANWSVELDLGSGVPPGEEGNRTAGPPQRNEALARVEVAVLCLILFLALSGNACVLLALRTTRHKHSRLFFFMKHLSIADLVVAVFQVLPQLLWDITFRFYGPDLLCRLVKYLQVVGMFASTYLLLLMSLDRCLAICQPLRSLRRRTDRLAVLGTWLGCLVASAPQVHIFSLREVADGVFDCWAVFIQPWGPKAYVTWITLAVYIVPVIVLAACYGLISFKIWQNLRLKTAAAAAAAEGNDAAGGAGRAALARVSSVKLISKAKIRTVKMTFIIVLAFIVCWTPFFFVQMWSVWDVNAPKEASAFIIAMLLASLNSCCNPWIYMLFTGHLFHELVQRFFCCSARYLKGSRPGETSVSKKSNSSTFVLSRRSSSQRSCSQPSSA

Activity [3]: 12 U/mg
SMILES: NCCCC[C@H](NC(=O)[C@@H]1CCCN1C(=O)[C@@H]1CSSCCC(=O)N[C@@H](Cc2ccc(O)cc2)C(=O)N[C@@H](Cc2ccccc2)C(=O)N[C@@H](CCC(N)=O)C(=O)N[C@@H](CC(N)=O)C(=O)N1)C(=O)NCC(N)=O
Activity (Rattus norvegicus [1]): 550 U/mg
Activity (Rattus norvegicus [2]): 145 U/mg

Activity [3]: 15 U/mg
SMILES: NCCC[C@H](NC(=O)[C@@H]1CCCN1C(=O)[C@@H]1CSSCCC(=O)N[C@@H](Cc2ccc(O)cc2)C(=O)N[C@@H](Cc2ccccc2)C(=O)N[C@@H](CCC(N)=O)C(=O)N[C@@H](CC(N)=O)C(=O)N1)C(=O)NCC(N)=O
Activity (Rattus norvegicus [1]): 486 U/mg
Activity (Rattus norvegicus [2]): 355 U/mg

Ki (Vasopressin V2 receptor): 0.0031 µM (antagonist)
Ki (Vasopressin V1a receptor): 1.25 µM (antagonist)
SMILES: CC(C)C[C@@H]1NC(=O)[C@H](Cc2ccccc2)NC(=O)[C@H](Cc2ccc(O)cc2)NC(=O)CCSSC[C@@H](C(=O)N2CCC[C@H]2C(=O)N[C@@H](CCCN=C(N)N)C(=O)NCC(N)=O)NC(=O)[C@H](CC(N)=O)NC1=O ([Mpa]YFLNCPRG-NH2; disulfide 1-6)

Activity [3]: 0.9 U/mg
SMILES: NC[C@H](NC(=O)[C@@H]1CCCN1C(=O)[C@@H]1CSSCCC(=O)N[C@@H](Cc2ccc(O)cc2)C(=O)N[C@@H](Cc2ccccc2)C(=O)N[C@@H](CCC(N)=O)C(=O)N[C@@H](CC(N)=O)C(=O)N1)C(=O)NCC(N)=O ([Mpa]YFQNCP[Dap]G-NH2; disulfide 1-6)
Activity (Rattus norvegicus [1]): 165 U/mg
Activity (Rattus norvegicus [2]): 8.7 U/mg

Ki (Vasopressin V2 receptor): 0.0002 µM (antagonist)
Ki (Vasopressin V1a receptor): 0.0129 µM (antagonist)
SMILES: N=C(N)NCCC[C@@H]1NC(=O)[C@H](Cc2ccccc2)NC(=O)[C@H](Cc2ccc(O)cc2)NC(=O)CCSSC[C@@H](C(=O)N2CCC[C@H]2C(=O)N[C@@H](CCCN=C(N)N)C(=O)NCC(N)=O)NC(=O)[C@H](CC(N)=O)NC1=O ([Mpa]YFRNCPRG-NH2; disulfide 1-6)

Activity [3]: 0.06 U/mg
Ki (Vasopressin V2 receptor): 0.0031 µM (antagonist)
Ki (Vasopressin V1a receptor): 0.067 µM (antagonist)
Ki (Oxytocin receptor): 0.13 µM (antagonist)
SMILES: N=C(N)NCCC[C@@H]1NC(=O)[C@H](Cc2ccccc2)NC(=O)[C@H](Cc2ccc(O)cc2)NC(=O)CCSSC[C@@H](C(=O)N2CCC[C@H]2C(=O)N[C@@H](CCCN)C(=O)NCC(N)=O)NC(=O)[C@H](CC(N)=O)NC1=O ([Mpa]YFRNCP[Orn]G-NH2; disulfide 1-6)
Activity (Rattus norvegicus [1]): 823 U/mg
Activity (Rattus norvegicus [2]): 173 U/mg

Ki (Vasopressin V2 receptor): 0.0003 µM (antagonist)
Ki (Vasopressin V1a receptor): 0.06 µM (antagonist)
SMILES: CC(C)[C@@H]1NC(=O)[C@H](Cc2ccccc2)NC(=O)[C@H](Cc2ccc(O)cc2)NC(=O)CCSSC[C@@H](C(=O)N2CCC[C@H]2C(=O)N[C@@H](CCCN=C(N)N)C(=O)NCC(N)=O)NC(=O)[C@H](CC(N)=O)NC1=O ([Mpa]YFVNCPRG-NH2; disulfide 1-6)

Ki (Vasopressin V2 receptor): 0.00026 µM (antagonist)
Ki (Vasopressin V1a receptor): 0.316 µM (antagonist)
SMILES: CC(C)[C@@H]1NC(=O)[C@H](Cc2ccccc2)NC(=O)[C@H](Cc2ccc(O)cc2)NC(=O)CCSSC[C@@H](C(=O)N2CCC[C@H]2C(=O)N[C@H](CCCNC(=N)N)C(=O)NCC(N)=O)NC(=O)[C@H](CC(N)=O)NC1=O ([Mpa]YFVNCP[dR]G-NH2; disulfide 1-6)
Activity (Rattus norvegicus [1]): 1230 U/mg
Activity (Rattus norvegicus [2]): <0.01 U/mg

Ki (Vasopressin V2 receptor): 0.0008 µM (antagonist)
SMILES: N=C(N)NCCC[C@@H](NC(=O)[C@@H]1CCCN1C(=O)[C@@H]1CSSCCC(=O)N[C@@H](Cc2ccc(O)cc2)C(=O)N[C@@H](Cc2ccccc2)C(=O)N[C@@H](CCC(N)=O)C(=O)N[C@@H](CC(N)=O)C(=O)N1)C(=O)NCC(N)=O (stereo in doubt; form 1) [DESMOPRESSIN]
Activity (Rattus norvegicus [1]): 1745 U/mg
Activity (Rattus norvegicus [2]): 346 U/mg

More lines, now with the values behind:

SMILES: N=C(N)NCCC[C@H](NC(=O)[C@@H]1CCCN1C(=O)[C@@H]1CSSCCC(=O)N[C@H](Cc2cccnc2)C(=O)N[C@@H](Cc2ccccc2)C(=O)N[C@@H](CCC(N)=O)C(=O)N[C@@H](CC(N)=O)C(=O)N1)C(=O)NCC(N)=O
Activity (Rattus norvegicus [1]): 1 U/mg
Activity (Rattus norvegicus [2]; filed as antagonist): Antagonist
Ki (Vasopressin V2 receptor): 0.069 µM (antagonist)
Ki (Vasopressin V1a receptor): 0.45 µM (antagonist)

SMILES: CC(C)C[C@@H]1NC(=O)[C@H](Cc2ccccc2)NC(=O)[C@H](Cc2ccc(O)cc2)NC(=O)CCSSC[C@@H](C(=O)N2CCC[C@H]2C(=O)N[C@@H](CCCNC(=N)N)C(=O)NCC(N)=O)NC(=O)[C@H](CC(N)=O)NC1=O ([Mpa]YFLNCPRG-NH2; disulfide 1-6)
Activity (Rattus norvegicus [1]): 378 U/mg
Activity (Rattus norvegicus [2]): 3.11 U/mg
Activity [3]: 0.67 U/mg

SMILES: CC(C)C[C@@H]1NC(=O)[C@H](Cc2ccccc2)NC(=O)[C@H](Cc2ccc(O)cc2)NC(=O)CCSSC[C@@H](C(=O)N2CCC[C@H]2C(=O)N[C@@H](CCN)C(=O)NCC(N)=O)NC(=O)[C@H](CC(N)=O)NC1=O ([Mpa]YFLNCP[Dab]G-NH2; disulfide 1-6)
Activity (Rattus norvegicus [1]): 5.7 U/mg
Activity (Rattus norvegicus [2]): 3.5 U/mg
Activity [3]: 0.27 U/mg
Ki (Vasopressin V2 receptor): 0.21 µM (antagonist)
Ki (Vasopressin V1a receptor): 1 µM (antagonist)
Ki (Oxytocin receptor): 0.041 µM (antagonist)

SMILES: CC(C)C[C@@H]1NC(=O)[C@H](Cc2ccccc2)NC(=O)[C@H](Cc2ccc(O)cc2)NC(=O)CCSSC[C@@H](C(=O)N2CCC[C@H]2C(=O)N[C@@H](CCCN)C(=O)NCC(N)=O)NC(=O)[C@H](CC(N)=O)NC1=O ([Mpa]YFLNCP[Orn]G-NH2; disulfide 1-6)
Activity (Rattus norvegicus [1]): 5.7 U/mg
Activity (Rattus norvegicus [2]): 3.1 U/mg
Ki (Vasopressin V2 receptor): 0.425 µM (antagonist)
Ki (Vasopressin V1a receptor): 1.4 µM (antagonist)

SMILES: NCC[C@H](NC(=O)[C@@H]1CCCN1C(=O)[C@@H]1CSSCCC(=O)N[C@@H](Cc2ccc(O)cc2)C(=O)N[C@@H](Cc2ccccc2)C(=O)N[C@@H](CCC(N)=O)C(=O)N[C@@H](CC(N)=O)C(=O)N1)C(=O)NCC(N)=O ([Mpa]YFQNCP[Dab]G-NH2; disulfide 1-6)
Activity (Rattus norvegicus [1]): 463 U/mg
Activity (Rattus norvegicus [2]): 385 U/mg
Activity [3]: 25 U/mg

SMILES: N=C(N)NCCC[C@@H]1NC(=O)[C@H](Cc2ccccc2)NC(=O)[C@H](Cc2ccc(O)cc2)NC(=O)CCSSC[C@@H](C(=O)N2CCC[C@H]2C(=O)N[C@@H](CCCCN)C(=O)NCC(N)=O)NC(=O)[C@H](CC(N)=O)NC1=O ([Mpa]YFRNCPKG-NH2; disulfide 1-6)
Activity (Rattus norvegicus [1]): 784 U/mg
Activity (Rattus norvegicus [2]): 83 U/mg
Activity [3]: 0.15 U/mg
Ki (Vasopressin V2 receptor): 0.0038 µM (antagonist)
Ki (Vasopressin V1a receptor): 0.13 µM (antagonist)
Ki (Oxytocin receptor): 0.125 µM (antagonist)

SMILES: NC(=O)CNC(=O)[C@H](CCCN=C(N)N)NC(=O)[C@@H]1CCCN1C(=O)[C@@H]1CSSCCC(=O)N[C@@H](Cc2ccc(O)cc2)C(=O)N[C@@H](Cc2ccccc2)C(=O)N[C@@H](CCCN=C(N)N)C(=O)N[C@@H](CC(N)=O)C(=O)N1 ([Mpa]YFRNCPRG-NH2; disulfide 1-6)
Activity (Rattus norvegicus [1]): 748.32 U/mg
Activity (Rattus norvegicus [2]): 159.93 U/mg

SMILES: N=C(N)NCCC[C@@H]1NC(=O)[C@H](Cc2ccccc2)NC(=O)[C@H](Cc2ccc(O)cc2)NC(=O)CCSSC[C@@H](C(=O)N2CCC[C@H]2C(=O)N[C@@H](CCN)C(=O)NCC(N)=O)NC(=O)[C@H](CC(N)=O)NC1=O ([Mpa]YFRNCP[Dab]G-NH2; disulfide 1-6)
Activity (Rattus norvegicus [1]): 431 U/mg
Activity (Rattus norvegicus [2]): 190 U/mg
Activity [3]: 0.14 U/mg
Ki (Vasopressin V2 receptor): 0.0018 µM (antagonist)
Ki (Vasopressin V1a receptor): 0.025 µM (antagonist)
Ki (Oxytocin receptor): 0.195 µM (antagonist)

SMILES: CC(C)[C@@H]1NC(=O)[C@H](Cc2ccccc2)NC(=O)[C@H](Cc2ccc(O)cc2)NC(=O)CCSSC[C@@H](C(=O)N2CCC[C@H]2C(=O)N[C@@H](CCCNC(=N)N)C(=O)NCC(N)=O)NC(=O)[C@H](CC(N)=O)NC1=O ([Mpa]YFVNCPRG-NH2; disulfide 1-6)
Activity (Rattus norvegicus [1]): 1150 U/mg
Activity (Rattus norvegicus [2]): 51 U/mg

SMILES: NCCC[C@@H]1NC(=O)[C@H](Cc2ccccc2)NC(=O)[C@H](Cc2ccc(O)cc2)NC(=O)CCSSC[C@@H](C(=O)N2CCC[C@H]2C(=O)N[C@@H](CCCN=C(N)N)C(=O)NCC(N)=O)NC(=O)[C@H](CC(N)=O)NC1=O ([Mpa]YF[Orn]NCPRG-NH2; disulfide 1-6)
Activity (Rattus norvegicus [1]): 260.32 U/mg
Activity (Rattus norvegicus [2]): 1.54 U/mg
Ki (Vasopressin V2 receptor): 0.0034 µM (antagonist)
Ki (Vasopressin V1a receptor): 0.9 µM (antagonist)

SMILES: N=C(N)NCCC[C@@H](NC(=O)[C@@H]1CCCN1C(=O)[C@@H]1CSSCCC(=O)N[C@@H](Cc2ccc(O)cc2)C(=O)N[C@@H](Cc2ccccc2)C(=O)N[C@@H](CCC(N)=O)C(=O)N[C@@H](CC(N)=O)C(=O)N1)C(=O)NCC(N)=O (stereo in doubt; form 2) [DESMOPRESSIN]
Activity (Rattus norvegicus [1]): 1200 U/mg
Activity (Rattus norvegicus [2]): 0.39 U/mg
Ki (Vasopressin V2 receptor): 0.0003 µM (antagonist)

SMILES: NC(=O)CC[C@@H]1NC(=O)[C@H](Cc2ccccc2)NC(=O)[C@H](Cc2ccc(O)cc2)NC(=O)[C@@H](N)CSSC[C@@H](C(=O)N2CCC[C@H]2C(=O)N[C@@H](CCCN=C(N)N)C(=O)NCC(N)=O)NC(=O)[C@H](CC(N)=O)NC1=O [VASOPRESSIN]
Ki (Oxytocin receptor): 0.00117 µM (antagonist)
